Test results as given in patent publication US9579328B2, “Prostaglandin and vasoconstrictor pharmaceutical compositions and methods of use” (ALLERGAN, INC., priority 2012, dated 2017).
Like-named read-outs stand apart in the source and are kept apart here.

Key:
[1] = test system: lower palpebral conjunctiva of rabbits, dogs, and non-human primates; conditions: cited from earlier work
[2] = test system: conjunctiva of patients; experiment: Phase 3 clinical studies, bimatoprost 0.03%/timolol 0.5% Combination versus bimatoprost monotherapy: conjunctival hyperaemia; type: in vivo, human
Text: Approximately 60% of patients being treated for glaucoma require two or more agents (adjuvant therapy) to control the intraocular pressure. For this reason, combination therapies, in which two pharmaceutically active agents are combined in the same formulation, have been developed to decrease complexity in the treatment regimen, improve patient compliance, and to minimize the exposure to excipients with possible toxicity such as benzalkonium chloride. Currently, the most commonly prescribed adjuvant therapy includes a beta-blocker and a prostaglandin analogue. For this reason, Allergan has formulated bimatoprost 0.03% together with timolol 0.5% (Combination).

[3] = test system: palpebral conjunctiva of Beagle dogs; conditions: n = 6 per group, left eye, cited from earlier work
[4] = test system: palpebral conjunctiva of Dutch-Belted (pigmented) rabbits; conditions: left eye, Bimatoprost 0.03% b.i.d. one month, n = 19; cited from earlier work
[5] = test system: palpebral conjunctiva of New Zealand White (albino) rabbits; conditions: left eye, n = 16, cited from earlier work
[6] = Pooled 192024-018T & 021T (3 months), first line
[7] = Pooled 192024-018T & 021T (3 months), second line
[8] = bimatoprost 0.001% q.i.d. topical ocular for one month
[9] = bimatoprost 0.01% q.i.d. topical ocular for one month
[10] = bimatoprost 0.1% q.i.d. topical ocular for one month
[11] = Bimatoprost 0.001% q.i.d. one month
[12] = Bimatoprost 0.01% q.i.d. one month
[13] = Bimatoprost 0.1% q.i.d. one month

CCNC(=O)CCC/C=C\C[C@@H]1[C@@H](/C=C/[C@@H](O)CCc2ccccc2)[C@H](O)C[C@@H]1O [Bimatoprost, bimatoprost]
Incidence of inflammatory infiltrates above background, lower palpebral conjunctiva: number of animals with histopathologic findings (per total number of animals) ([1]; Dogs, Beagle, 1 month, 0.1% q.i.d. topical): 0 (6)
Incidence of inflammatory infiltrates above background, lower palpebral conjunctiva: number of animals with histopathologic findings (per total number of animals) ([1]; Monkeys, Cynomolgus, 12 months, 0.1% b.i.d. topical): 0 (60)
Incidence of inflammatory infiltrates above background, lower palpebral conjunctiva: number of animals with histopathologic findings (per total number of animals) ([1]; Rabbits, Dutch-Belted, 1 month, 0.03% b.i.d. topical): 0 (19)
Incidence of inflammatory infiltrates above background, lower palpebral conjunctiva: number of animals with histopathologic findings (per total number of animals) ([1]; Rabbits, Dutch-Belted, 6 months, 0.1% b.i.d. topical): 1 (20)
Incidence of inflammatory infiltrates above background, lower palpebral conjunctiva: number of animals with histopathologic findings (per total number of animals) ([1]; Rabbits, New Zealand White, 1 month, 0.1% q.i.d. topical): 0 (16)
compound-related findings in eyes of the animal species ([1]; multiple subclinical, clinical, and exaggerated doses): No compound-related findings of corneal toxicity, discomfort or irritation, or histopathological changes
in-life evaluations: treatment-related ocular surface inflammation ([1]; periods of up to one year exposure): no treatment-related ocular surface inflammation
Incidence of Conjunctival hyperaemia Detected on Biomicroscopy, Biomicro ≧ +1 ([2]; 192024-026T (3 weeks)): 18.9%
Incidence of Conjunctival hyperaemia Reported as a Treatment-Related AE (Rx-rel AE) ([2]; 192024-026T (3 weeks)): 27.8%
Incidence of Conjunctival hyperaemia Detected on Biomicroscopy, Biomicro ≧ +1 ([2]; 192024-504T (3 months)): 21.1%
Incidence of Conjunctival hyperaemia Reported as a Treatment-Related AE (Rx-rel AE) ([2]; 192024-504T (3 months)): 29.9%
Incidence of Conjunctival hyperaemia Detected on Biomicroscopy, Biomicro ≧ +1 [2, 6]: 30.9%
Incidence of Conjunctival hyperaemia Reported as a Treatment-Related AE (Rx-rel AE) [2, 6]: 38.5%
Incidence of Conjunctival hyperaemia Detected on Biomicroscopy, Biomicro ≧ +1 [2, 7]: 41.5%
Incidence of Conjunctival hyperaemia Reported as a Treatment-Related AE (Rx-rel AE) [2, 7]: 43.4%
Incidence of minimal-to-mild mononuclear cell infiltration in palpebral conjunctiva (number of animals with histopathologic findings), Lower Eyelid [3, 8]: 3
Incidence of minimal-to-mild mononuclear cell infiltration in palpebral conjunctiva (number of animals with histopathologic findings), Upper Eyelid [3, 8]: 4
Incidence of minimal-to-mild mononuclear cell infiltration in palpebral conjunctiva (number of animals with histopathologic findings), Lower Eyelid [3, 9]: 5
Incidence of minimal-to-mild mononuclear cell infiltration in palpebral conjunctiva (number of animals with histopathologic findings), Upper Eyelid [3, 9]: 3
Incidence of minimal-to-mild mononuclear cell infiltration in palpebral conjunctiva (number of animals with histopathologic findings), Lower Eyelid [3, 10]: 6
Incidence of minimal-to-mild mononuclear cell infiltration in palpebral conjunctiva (number of animals with histopathologic findings), Upper Eyelid [3, 10]: 5
Incidence of mononuclear cell infiltration in palpebral conjunctiva, Lower Eyelid, Minimal/mild [4]: 12 number of animals
Incidence of mononuclear cell infiltration in palpebral conjunctiva, Lower Eyelid, Moderate [4]: 0 number of animals
Incidence of mononuclear cell infiltration in palpebral conjunctiva, Upper Eyelid, Minimal/mild [4]: 6 number of animals
Incidence of minimal-to-mild mononuclear cell infiltration in palpebral conjunctiva, Lower Eyelid [5, 11]: 12 number of animals
Incidence of minimal-to-mild mononuclear cell infiltration in palpebral conjunctiva, Upper Eyelid [5, 11]: 4 number of animals
Incidence of minimal-to-mild mononuclear cell infiltration in palpebral conjunctiva, Lower Eyelid [5, 12]: 13 number of animals
Incidence of minimal-to-mild mononuclear cell infiltration in palpebral conjunctiva, Upper Eyelid [5, 12]: 6 number of animals
Incidence of minimal-to-mild mononuclear cell infiltration in palpebral conjunctiva, Lower Eyelid [5, 13]: 14 number of animals
Incidence of minimal-to-mild mononuclear cell infiltration in palpebral conjunctiva, Upper Eyelid [5, 13]: 8 number of animals
